This note sets out measurements from patent publication US6855843B2, “Inhibitors of α4 mediated cell adhesion” (Tanabe Seiyaku Co., Ltd., priority 1998, dated 2005).

pIC50: −log10 of the molar value.

The target in this experiment is T1, α4β7 (adhesion of RPMI cells to CS-1) (Homo sapiens, UniProt P13612+P26010).
T1 construct: endogenous in cells
T1 sequence (P13612 34-1032): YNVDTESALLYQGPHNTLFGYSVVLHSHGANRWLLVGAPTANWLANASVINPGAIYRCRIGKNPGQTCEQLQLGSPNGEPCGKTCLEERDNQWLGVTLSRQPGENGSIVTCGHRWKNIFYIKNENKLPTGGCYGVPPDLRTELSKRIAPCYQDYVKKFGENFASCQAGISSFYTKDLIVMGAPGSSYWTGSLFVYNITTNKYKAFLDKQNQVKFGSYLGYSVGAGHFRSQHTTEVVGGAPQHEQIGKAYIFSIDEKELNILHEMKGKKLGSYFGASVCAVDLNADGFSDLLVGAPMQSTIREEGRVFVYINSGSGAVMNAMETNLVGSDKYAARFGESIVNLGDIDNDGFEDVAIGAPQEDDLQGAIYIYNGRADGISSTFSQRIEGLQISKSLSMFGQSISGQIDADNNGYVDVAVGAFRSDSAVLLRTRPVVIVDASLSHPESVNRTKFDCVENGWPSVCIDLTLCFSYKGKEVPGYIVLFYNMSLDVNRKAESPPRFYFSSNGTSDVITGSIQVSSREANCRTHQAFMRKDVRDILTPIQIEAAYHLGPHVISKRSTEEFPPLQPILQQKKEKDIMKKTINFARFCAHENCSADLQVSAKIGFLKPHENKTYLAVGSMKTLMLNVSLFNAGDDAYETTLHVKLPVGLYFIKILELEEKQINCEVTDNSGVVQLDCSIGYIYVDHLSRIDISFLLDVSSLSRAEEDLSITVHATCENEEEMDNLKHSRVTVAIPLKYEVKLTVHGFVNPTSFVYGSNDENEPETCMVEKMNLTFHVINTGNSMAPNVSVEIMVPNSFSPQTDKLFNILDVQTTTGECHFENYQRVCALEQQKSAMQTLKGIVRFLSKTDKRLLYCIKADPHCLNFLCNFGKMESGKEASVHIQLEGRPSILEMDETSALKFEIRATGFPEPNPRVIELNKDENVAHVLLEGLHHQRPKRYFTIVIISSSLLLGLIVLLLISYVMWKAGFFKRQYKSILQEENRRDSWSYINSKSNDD
T1 sequence (P26010 20-798): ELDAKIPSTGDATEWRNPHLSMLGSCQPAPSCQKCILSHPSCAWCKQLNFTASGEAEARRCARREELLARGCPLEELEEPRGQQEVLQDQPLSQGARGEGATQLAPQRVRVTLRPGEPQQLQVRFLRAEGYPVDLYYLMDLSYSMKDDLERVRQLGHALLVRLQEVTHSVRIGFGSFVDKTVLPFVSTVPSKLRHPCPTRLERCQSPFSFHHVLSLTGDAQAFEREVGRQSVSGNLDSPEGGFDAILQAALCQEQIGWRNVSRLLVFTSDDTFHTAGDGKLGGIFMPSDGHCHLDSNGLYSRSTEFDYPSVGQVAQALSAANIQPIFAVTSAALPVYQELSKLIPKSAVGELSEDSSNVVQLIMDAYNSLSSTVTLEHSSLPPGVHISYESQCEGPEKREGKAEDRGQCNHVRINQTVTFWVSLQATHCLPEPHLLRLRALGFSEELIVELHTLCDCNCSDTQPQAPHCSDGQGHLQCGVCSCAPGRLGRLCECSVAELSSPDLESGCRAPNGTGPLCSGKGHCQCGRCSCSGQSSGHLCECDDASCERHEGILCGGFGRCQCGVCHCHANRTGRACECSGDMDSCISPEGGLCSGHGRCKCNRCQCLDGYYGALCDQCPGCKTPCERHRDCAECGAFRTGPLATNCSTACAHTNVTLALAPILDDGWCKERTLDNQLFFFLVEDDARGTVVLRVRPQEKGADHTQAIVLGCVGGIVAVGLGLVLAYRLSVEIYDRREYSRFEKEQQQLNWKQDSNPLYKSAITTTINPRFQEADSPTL
Kind of experiment: RPMI-CS-1 cell adhesion assay. In kind it is cell-based. Particulars: adhesion of RPMI B-cell line (expresses α4β7) to CS-1 peptide coated microwells; read-out: RPMI-CS-1 IC50 value range.
Take `COc1c(F)cc(F)c(OC)c1-c1ccc(C[C@H](NC(=O)c2c(Cl)cccc2Cl)C(=O)O)cc1` [Example 153B, N-(2,6-dichlorobenzoyl)-4-(2,6-dimethoxy-3,5-difluorophenyl)-L-phenylalanine]: the negative-log IC50 (pIC50) is more than 6.52. For `COc1cccc(OC)c1-c1ccc(C[C@H](NC(=O)c2c(F)cccc2F)C(=O)O)cc1` [Example 3, N-(2,6-Difluorobenzoyl)-4-(2,6-dimethoxyphenyl)-L-phenylalanine], the pIC50 was more than 6.52. Take `CCCc1ccc(C(=O)N[C@@H](Cc2ccc(-c3ccccc3OC)cc2)C(=O)O)cc1` [Example 97]: the pIC50 was 6.00 to 6.52. For `CNC(=O)c1ccccc1-c1ccc(C[C@H](NC(=O)c2c(Cl)cccc2Cl)C(=O)O)cc1` [Example 54, N-(2,6-Dichlorobenzoyl)-4-[2-(N-methylcarbamoyl)phenyl]-L-phenylalanine] the value was 6.00 to 6.52; for `O=C(N[C@@H](Cc1ccc(-c2c(O)ccc3c2OCO3)cc1)C(=O)O)c1c(Cl)cccc1Cl` [Example 236, N-(2,6-Dichlorobenzoyl)-4-(2,3-methylenedioxy-6-hydroxyphenyl)-L-phenylalanine], more than 6.52; for `COc1cccc(OC)c1-c1ccc(C[C@H](NC(=O)c2cccc([N+](=O)[O-])c2)C(=O)O)cc1` [Example 284], 5.30 to 6.00. For `COc1cc(CN2CC(C)OC(C)C2)cc(OC)c1-c1ccc(C[C@H](NC(=O)c2c(Cl)cccc2Cl)C(=O)O)cc1` (stereo partly shown) [Example 245], the negative-log IC50 (pIC50) was more than 6.52. `O=C(NCc1ccccc1)c1ccccc1-c1ccc(C[C@H](NC(=O)c2c(Cl)cccc2Cl)C(=O)O)cc1` [Example 53, N-(2,6-Dichlorobenzoyl)-4-[2-(N-benzylcarbamoyl)phenyl]-L-phenylalanine]: the negative logarithm of the IC50 (pIC50) is 5.30 to 6.00.

As to `COc1cc(CN2CCC3(CC2)OCCO3)cc(OC)c1-c1ccc(C[C@H](NC(=O)c2c(Cl)cccc2Cl)C(=O)O)cc1` [Example 244], the pIC50 was more than 6.52.

Turning to `COc1cccc(OC)c1-c1ccc(C[C@H](NC(=O)c2c(Cl)cc(-c3c(C)noc3C)cc2Cl)C(=O)O)cc1` [Example 309], the pIC50 is more than 6.52. Take `COc1ccccc1-c1ccc(C[C@H](NC(=O)c2ccc(NC(C)=O)cc2)C(=O)O)cc1` [Example 104]: the pIC50 was less than 5.30. Turning to `COc1ccccc1-c1ccc(C[C@H](NC(=O)c2ccc(C(=O)OC(C)(C)C)cc2Cl)C(=O)O)cc1` [Example 176, N-[2-Chloro-4-(tert-butoxycarbonyl)benzoyl]-4-(2-methoxyphenyl)-L-phenylalanine], the pIC50 was 6.00 to 6.52. For `COc1ccccc1-c1ccc(C[C@H](NC(=O)c2c(Cl)cccc2Cl)C(=O)O)cc1` [Example 8, N-(2,6-Dichlorobenzoyl)-4-(2-methoxyphenyl)-L-phenylalanine], the negative-log IC50 (pIC50) is more than 6.52. Turning to `COc1cccc(OC)c1-c1ccc(C[C@H](NC(=O)c2c(F)cc(F)cc2F)C(=O)O)cc1` [Example 279], the pIC50 is more than 6.52. In the case of `COc1cc(OCc2ccccn2)cc(OC)c1-c1ccc(C[C@H](NC(=O)c2c(Cl)cccc2Cl)C(=O)O)cc1` [Example 349] it was more than 6.52; in that of `COC(=O)[C@H](Cc1ccc(-c2cccs2)cc1)NC(=O)c1c(Cl)cccc1Cl` [Example 4A, N-(2,6-Dichlorobenzoyl)-4-(2-thienyl)-L-phenylalanine methyl ester], 5.30 to 6.00; in that of `CC(=O)NS(=O)(=O)c1ccccc1-c1ccc(C[C@H](NC(=O)c2c(Cl)cccc2Cl)C(=O)O)cc1` [Example 19, N-(2,6-Dichlorobenzoyl)-4-[2-(N-acetylsulfamoyl)phenyl]-L-phenylalanine], 5.30 to 6.00. For `CN(C)c1ccccc1-c1ccc(C[C@H](NC(=O)c2c(Cl)cccc2Cl)C(=O)O)cc1` [Example 27, N-(2,6-Dichlorobenzoyl)-4-[2-(N,N-dimethylamino)phenyl]-L-phenylalanine], the negative-log IC50 (pIC50) was more than 6.52. For `COc1cccc(OC)c1-c1ccc(C[C@H](NC(=O)c2c(Cl)cc(-c3cccs3)cc2Cl)C(=O)O)cc1` [Example 316], the pIC50 was more than 6.52.

In the case of `COCOc1ccc2c(c1-c1ccc(C[C@H](NC(=O)c3c(Cl)cccc3Cl)C(=O)O)cc1)OCO2` [Example 235, N-(2,6-Dichlorobenzoyl)-4-[2,3-methylenedioxy-6-(methoxymethoxy)phenyl]-L-phenylalanine], the negative logarithm of the IC50 (pIC50) was more than 6.52.

In the case of `COc1cccc(OC)c1-c1ccc(C[C@H](NC(=O)c2c(Cl)cccc2Cl)C(=O)NO)cc1` [Example 268, N-(2,6-dichlorobenzoyl)-4-(2,6-dimethoxyphenyl)-L-phenylalanine N-hydroxyamide], the pIC50 was 5.30 to 6.00. In the case of `COC(=O)[C@H](Cc1ccc(-c2ccccc2CNc2cccnc2)cc1)NC(=O)c1c(Cl)cccc1Cl` [Example 116], the pIC50 is 5.30 to 6.00. With `COc1ccc(S(=O)(=O)Nc2ccc(C(=O)N[C@@H](Cc3ccc(-c4ccccc4OC)cc3)C(=O)O)c(Cl)c2)cc1` [Example 190, N-[2-Chloro-4-[[(4-methoxyphenyl)sulfonyl]amino]-benzoyl]-4-(2-methoxyphenyl)-L-phenylalanine], the negative logarithm of the IC50 (pIC50) was more than 6.52.

With `COc1ccccc1-c1ccc(C[C@H](NC(=O)[C@H](C)c2ccccc2)C(=O)O)cc1` [Example 78], the negative-log IC50 (pIC50) was 6.00 to 6.52. For `COc1cccc(OC)c1-c1ccc(C[C@H](NC(=O)c2ccc(OC(C)C)cc2Cl)C(=O)O)cc1` [Example 285], the pIC50 is more than 6.52.

Consider `COc1cc(CN(C)C)cc(OC)c1-c1ccc(C[C@H](NC(=O)c2c(Cl)cccc2Cl)C(=O)O)cc1` [Example 255, N-(2,6-Dichlorobenzoyl)-4-[2,6-dimethoxy-4-[(N,N-dimethylamino)methyl]phenyl]-L-phenylalanine], for which the negative logarithm of the IC50 (pIC50) was more than 6.52.

On to `O=C(N[C@@H](Cc1ccc(-c2c(OCCO)ccc3c2OCO3)cc1)C(=O)O)c1c(Cl)cccc1Cl` [Example 238, N-(2,6-Dichlorobenzoyl)-4-[2,3-methylenedioxy-6-(2-hydroxyethoxy)phenyl]-L-phenylalanine], for which the negative-log IC50 (pIC50) is more than 6.52. `COc1ccccc1-c1ccc(C[C@H](NC(=O)c2ccc(NS(=O)(=O)c3ccc(F)cc3)cc2Cl)C(=O)O)cc1` [Example 189, N-[2-Chloro-4-[[(4-fluorophenyl)sulfonyl]amino]benzoyl]-4-(2-methoxyphenyl)-L-phenylalanine]: the pIC50 is more than 6.52. In the case of `COc1ccc(-c2ccc(C[C@H](NC(=O)c3c(Cl)cccc3Cl)C(=O)O)cc2)cc1` [Example 118], the pIC50 is 5.30 to 6.00.

Take `O=C(O)CCCOc1ccccc1-c1ccc(C[C@H](NC(=O)c2c(Cl)cccc2Cl)C(=O)O)cc1` [Example 36]: the pIC50 is more than 6.52. Regarding `COc1ccccc1-c1ccc(C[C@H](NC(=O)c2ccc(NC(N)=O)cc2Cl)C(=O)O)cc1` [Example 69, N-(2-Chloro-4-ureidobenzoyl)-4-(2-methoxyphenyl)-L-phenylalanine], the negative logarithm of the IC50 (pIC50) is more than 6.52.

On to `CCCN1CCN(Cc2cc(OC)c(-c3ccc(C[C@H](NC(=O)c4c(Cl)cccc4Cl)C(=O)O)cc3)c(OC)c2)CC1` [Example 252], for which the negative logarithm of the IC50 (pIC50) is more than 6.52.

`COc1cccc(OC)c1-c1ccc(C[C@H](NC(=O)c2ccccc2C(C)C)C(=O)O)cc1` [Example 280]: the negative-log IC50 (pIC50) was more than 6.52.

In the case of `COc1cc(OCCO)cc(OC)c1-c1ccc(C[C@H](NC(=O)c2c(Cl)cccc2Cl)C(=O)O)cc1` [Example 222, N-(2,6-Dichlorobenzoyl)-4-[2,6-dimethoxy-4-(2-hydroxyethoxy)phenyl]-L-phenylalanine], the pIC50 is more than 6.52.
